Results taken from patent publication US20160129011A1, “BICYCLO 2,3-BENZODIAZEPINES AND SPIROCYCLICALLY SUBSTITUTED 2,3-BENZODIAZEPINES” (BAYER PHARMA AKTIENGESELLSCHAFT, priority 2013, published 2016).

These compounds were tested against T1, BRD4 (BD1) (Homo sapiens, UniProt O60885) (assay: Binding assay BRD4/acetylated peptide H4 (TR-FRET protein-protein interaction assay)). Settings: BRD4 (BD1) / acetylated histone H4 peptide.
T1 construct: longer constructs also being possible, preferably amino acids 44-168; made in house; host or cells: E. coli
Source text: To assess the BRD4 binding strength of the substances described in this application, the ability thereof to inhibit the interaction between BRD4 (BD1) and acetylated histone H4 in a dose-dependent manner was quantified.
For this purpose, a time-resolved fluorescence resonance energy transfer (TR-FRET) assay was used, which measures the binding between N-terminally His6-tagged BRD4 (BD1) (amino acids 67-152, longer constructs also being possible, preferably amino acids 44-168) and a synthetic acetylated histone H4 (Ac—H4) peptide with sequence GRGK(Ac)GGK(Ac)GLGK(Ac)GGAK(Ac)RHGSGSK-biotin. The recombinant BRD4 protein produced in-house according to Filippakopoulos et al., Nature, 2010, 468:1119-1123 was expressed in E. coli and purified by means of (Ni-NTA) affinity and (Sephadex G-75) size exclusion chromatography. The Ac—H4 peptide can be purchased, for example, from Biosyntan (Berlin, Germany).
In the assay, typically 11 different concentrations of each substance (0.1 nM, 0.33 nM, 1.1 nM, 3.8 nM, 13 nM, 44 nM, 0.15 μM, 0.51 μM, 1.7 μM, 5.9 μM and 20 μM) were analysed as duplicates on the same microtitre plate. For this purpose, 100-fold concentrated solutions in DMSO were prepared by serial dilutions (1:3.4) of a 2 mM stock solution into a clear, 384-well microtitre plate (Greiner Bio-One, Frickenhausen, Germany). From this, 50 nl were transferred into a black test plate (Greiner Bio-One, Frickenhausen, Germany). The test was started by the addition of 2 μl of a 2.5-fold concentrated BRD4 solution (final concentration typically 10 nM in the 5 μl of reaction volume) in aqueous assay buffer [50 mM HEPES pH 7.5, 50 mM sodium chloride (NaCl), 0.25 mM CHAPS and 0.05% serum albumin (BSA)] to the substances in the test plate. This was followed by a 10-minute incubation step at 22° C. for the pre-equilibration of putative complexes between BRD4 and the substances.
The mixture was then incubated in the dark at 22° C. for one hour and then at 4° C. for at least 3 hours and for no longer than overnight. The formation of BRD4/Ac—H4 complexes was determined by the measurement of the resonance energy transfer from the streptavidin-Eu cryptate to the anti-6His-XL665 antibody present in the reaction. For this purpose, the fluorescence emission was measured at 620 nm and 665 nm after excitation at 330-350 nm in a TR-FRET measuring instrument, for example a Rubystar or Pherastar (both from BMG Lab Technologies, Offenburg, Germany) or a Viewlux (Perkin-Elmer). The ratio of the emissions at 665 nm and at […] was taken as an indicator of the amount of BRD4/Ac—H4 complexes formed.
The data (ratios) obtained were normalized, with 0% inhibition corresponding to the mean from the measurements for a set of controls (typically 32 data points) in which all the reagents were present. In these, in place of test substances, 50 nl of DMSO (100%) were used. Inhibition of 100% corresponded to the mean from the measurements for a set of controls (typically 32 data points) in which all the reagents except BRD4 were present. The IC50 was determined by regression analysis based on a 4-parameter equation (minimum, maximum, IC50, Hill; Y=max+(min−max)/(1+(X/IC50)^Hill)).
With CNC(=O)N1N=C(c2ccc(N3CC4(CCS4(=O)=O)C3)cc2)c2cc(-n3nc(C)cc3C)ccc2CC1C (racemic) [Example 17, (±)-8-(3,5-dimethyl-1H-pyrazol-1-yl)-1-[4-(1,1-dioxido-1-thia-6-azaspiro[3.3]hept-6-yl)phenyl]-N,4-dimethyl-4,5-dihydro-3H-2,3-benzodiazepine-3-carboxamide] the IC50 was 40 nM. With CNC(=O)N1N=C(c2ccc(N3CCC4(CC3)CNC(=O)C4)cc2)c2cc(OC)c(OC)cc2CC1C (racemic) [Example 28, (±)-7,8-Dimethoxy-N,4-dimethyl-1-[4-(3-oxo-2,8-diazaspiro[4.5]dec-8-yl)phenyl]-4,5-dihydro-3H-2,3-benzodiazepine-3-carboxamide] the IC50 was 100 nM. In the case of CNC(=O)N1N=C(c2ccc(N3CCC4(CCN(C)C4)CC3)cc2)c2cc(OC)c(OC)cc2CC1C (racemic) [Example 31, (±)-7,8-dimethoxy-N,4-dimethyl-1-[4-(2-methyl-2,8-diazaspiro[4.5]dec-8-yl)phenyl]-4,5-dihydro-3H-2,3-benzodiazepine-3-carboxamide], the IC50 is reported as 100 nM. Compound CNC(=O)N1N=C(c2ccc(N3CCC4(CC3)COC(=O)N4)cc2)c2cc(OC)c(OC)cc2CC1C (racemic) [Example 32] has an IC50 of 110 nM. With CNC(=O)N1N=C(c2ccc(N3CC4(C3)CS(=O)(=O)C4)cc2)c2cc(OC)c(OC)cc2CC1C (racemic) [Example 34, (±)-1-[4-(2,2-dioxido-2-thia-6-azaspiro[3.3]hept-6-yl)phenyl]-7,8-dimethoxy-N,4-dimethyl-4,5-dihydro-3H-2,3-benzodiazepine-3-carboxamide] the IC50 was 70 nM. For CNC(=O)N1N=C(c2ccc(N3C4CCC3CC(=O)NC4)cc2)c2cc(OC)c(OC)cc2CC1C (racemic) [Example 39, (±)-7,8-Dimethoxy-N,4-dimethyl-1-[4-(4-oxo-3,9-diazabicyclo[4.2.1]non-9-yl)phenyl]-4,5-dihydro-3H-2,3-benzodiazepine-3-carboxamide], the IC50 was 120 nM. In the case of CNC(=O)N1N=C(c2ccc(N3C(=O)[C@@H]4CC[C@H]3C4)cc2)c2cc(OC)c(OC)cc2C[C@@H]1C (relative stereo) [Example 2, {1S-[1R*,2(S*),4S*]}-7,8-dimethoxy-N,4-dimethyl-1-[4-(-3-oxo-2-azabicyclo[2.2.1]hept-2-yl)phenyl]-4,5-dihydro-3H-2,3-benzodiazepine-3-carboxamide], the IC50 is reported as 20 nM. For CNC(=O)N1N=C(c2ccc(N3C[C@@H]4C[C@H]3CN4C)cc2)c2cc(OC)c(OC)cc2C[C@@H]1C (relative stereo) [Example 40.2, [1S-[1R*,2(R*),4R*]]-7,8-Dimethoxy-N,4-dimethyl-1-[4-(5-methyl-2,5-diazabicyclo[2.2.1]hept-2-yl)phenyl]-4,5-dihydro-3H-2,3-benzodiazepine-3-carboxamide], the IC50 was 520 nM. For CNC(=O)N1N=C(c2ccc(F)c(N3C[C@@H]4C[C@H]3CN4C)c2)c2cc(OC)c(OC)cc2C[C@H]1C (relative stereo) [Example 41.1, [1S-(1R*,2(S*),4R*)]-1-[4-fluoro-3-(5-methyl-2,5-diazabicyclo[2.2.1]hept-2-yl)phenyl]-7,8-dimethoxy-4,5-dihydro-N,4-dimethyl-3H-2,3-benzodiazepine-3-carboxamide], the IC50 was 16500 nM. Work on CNC(=O)N1N=C(c2ccc(F)c(N3C[C@@H]4C[C@H]3CN4C)c2)c2cc(OC)c(OC)cc2C[C@@H]1C (relative stereo) [Example 41.2, [1S-(1R*,2(R*),4R*)]-1-[4-fluoro-3-(5-methyl-2,5-diazabicyclo[2.2.1]hept 2-yl)phenyl]-7,8-dimethoxy-4,5-dihydro-N,4-dimethyl-3H-2,3-benzodiazepine-3-carboxamide] yielded an IC50 of 380 nM. Work on CNC(=O)N1N=C(c2ccc(N3CC4(CCS4(=O)=O)C3)cc2)c2cc(OC)c(OC)cc2C[C@H]1C [Example 3.2, (4R)-1-[4-(1,1-Dioxido-1-thia-6-azaspiro[3.3]hept-6-yl)phenyl]-7,8-dimethoxy-N,4-dimethyl-4,5-dihydro-3H-2,3-benzodiazepine-3-carboxamide] yielded an IC50 of 2580 nM.
